Target: T1, hSCN9A (Homo sapiens, UniProt Q15858)
T1 construct: expressed in transfected cells
Experiment: Whole-cell patch-clamp electrophysiology (conventional or PatchXpress), HEK cells expressing hSCN9A, estimated IC-50
Type: cell-based
Details: estimated IC-50, HEK cells expressing hSCN9A; class symbols or bounds; read-out: SCN9A EIC-50
Procedure: Human Embryonic Kidney (HEK) cells were transfected with hSCN3A or hSCN9A constructs using lipofectamine reagent (Invitrogen), using standard techniques. Cells stably expressing the hSCN3A or hSCN9A constructs were identified by their resistance to G-418 (400 μg/ml). Clones were screened for expression using the whole-cell voltage-clamp technique. HEK cells stably transfected with hSCN3A or hSCN9A were maintained in DMEM medium supplemented with 10% heat-inactivated fetal bovine serum and 400 μg/ml G418 sulfate in an incubator at 37° C. with a humidified atmosphere of 10% CO2. For HTS, cells were harvested from flasks by trypsinization and replated in an appropriate multi-well plate (typically 96 or 384 wells/plate) such that confluence would be achieved within 24 hours of plating. For electrophysiological studies, cells were removed from the culture flask by brief trypsinization and replated at low density onto glass cover slips. Cells were typically used for electrophysiological experiments within 24 to 72 h after plating. Cover slips containing HEK cells expressing hSCN3A or hSCN9A were placed in a bath on the stage of an inverted microscope and perfused (approximately 1 ml/min) with extracellular solution of the following composition: 138 mM NaCl, 2 mM CaCl2, 5.4 mM KCl, 1 mM MgCl2, 10 mM glucose, and 10 mM HEPES, pH 7.4, with NaOH. […] All recordings were made at room temperature (22-24° C.) using AXOPATCH 200B amplifiers and PCLAMP software (Axon Instruments, Burlingame, Calif.) or PatchXpress 7000 hardware and associated software (Axon Instruments, Burlingame, Calif.). hSCN3A or hSCN9A currents in HEK cells were measured using the whole-cell configuration of the patch-clamp technique (Hamill et al., 1981). […] As a result, voltage errors were negligible and no correction was applied. Current records were acquired at 20 to 50 KHz and filtered at 5 to 10 KHz. HEK cells stably transfected with hSCN3A or hSCN9A were viewed under Hoffman contrast optics and placed in front of an array of flow pipes emitting either control or compound-containing extracellular solutions. All compounds were dissolved in dimethyl sulfoxide to make 10 mM stock solutions, which were then diluted into extracellular solution to attain the final concentrations desired. […] The voltage-dependence of inactivation was determined by applying a series of depolarizing prepulses (8 sec long in 10 mV increments) from a negative holding potential. The voltage was then immediately stepped to 0 mV to assess the magnitude of the sodium current. Currents elicited at 0 mV were plotted as a function of prepulse potential to allow estimation of the voltage midpoint of inactivation (V1/2). Cells were then voltage clamped at the empirically determined V1/2. Compounds were tested for their ability to inhibit hSCN3A or hSCN9A sodium channels by activating the channel with a 20 msec voltage step to 0 mV following an 8 second conditioning prepulse to the empirically determined V1-2 (Table B). Compound effect (% inhibition) was determined by difference in current amplitude before and after application of test compounds. […] In some cases electrophysiological assays were conducted with PatchXpress 7000 hardware and associated software (Molecular Devices Corp) (Table B). All assay buffers and solutions were identical to those used in conventional whole-cell voltage clamp experiments described above. hSCN3A or hSCN9A containing cells were grown as above to 50%-80% confluency and harvested by trypsinization. Trypsinized cells were washed and resuspended in extracellular buffer at a concentration of 1×10^6 cells/ml. The onboard liquid handling facility of the PatchXpress was used for dispensing cells and application of test compounds. Determination of the voltage midpoint of inactivation was as described for conventional whole-cell recordings. Cells were then voltage-clamped to the empirically determined V1/2 and current was activated by a 20 msec voltage step to 0 mV.

T1 sequence (Q15858 whole entry): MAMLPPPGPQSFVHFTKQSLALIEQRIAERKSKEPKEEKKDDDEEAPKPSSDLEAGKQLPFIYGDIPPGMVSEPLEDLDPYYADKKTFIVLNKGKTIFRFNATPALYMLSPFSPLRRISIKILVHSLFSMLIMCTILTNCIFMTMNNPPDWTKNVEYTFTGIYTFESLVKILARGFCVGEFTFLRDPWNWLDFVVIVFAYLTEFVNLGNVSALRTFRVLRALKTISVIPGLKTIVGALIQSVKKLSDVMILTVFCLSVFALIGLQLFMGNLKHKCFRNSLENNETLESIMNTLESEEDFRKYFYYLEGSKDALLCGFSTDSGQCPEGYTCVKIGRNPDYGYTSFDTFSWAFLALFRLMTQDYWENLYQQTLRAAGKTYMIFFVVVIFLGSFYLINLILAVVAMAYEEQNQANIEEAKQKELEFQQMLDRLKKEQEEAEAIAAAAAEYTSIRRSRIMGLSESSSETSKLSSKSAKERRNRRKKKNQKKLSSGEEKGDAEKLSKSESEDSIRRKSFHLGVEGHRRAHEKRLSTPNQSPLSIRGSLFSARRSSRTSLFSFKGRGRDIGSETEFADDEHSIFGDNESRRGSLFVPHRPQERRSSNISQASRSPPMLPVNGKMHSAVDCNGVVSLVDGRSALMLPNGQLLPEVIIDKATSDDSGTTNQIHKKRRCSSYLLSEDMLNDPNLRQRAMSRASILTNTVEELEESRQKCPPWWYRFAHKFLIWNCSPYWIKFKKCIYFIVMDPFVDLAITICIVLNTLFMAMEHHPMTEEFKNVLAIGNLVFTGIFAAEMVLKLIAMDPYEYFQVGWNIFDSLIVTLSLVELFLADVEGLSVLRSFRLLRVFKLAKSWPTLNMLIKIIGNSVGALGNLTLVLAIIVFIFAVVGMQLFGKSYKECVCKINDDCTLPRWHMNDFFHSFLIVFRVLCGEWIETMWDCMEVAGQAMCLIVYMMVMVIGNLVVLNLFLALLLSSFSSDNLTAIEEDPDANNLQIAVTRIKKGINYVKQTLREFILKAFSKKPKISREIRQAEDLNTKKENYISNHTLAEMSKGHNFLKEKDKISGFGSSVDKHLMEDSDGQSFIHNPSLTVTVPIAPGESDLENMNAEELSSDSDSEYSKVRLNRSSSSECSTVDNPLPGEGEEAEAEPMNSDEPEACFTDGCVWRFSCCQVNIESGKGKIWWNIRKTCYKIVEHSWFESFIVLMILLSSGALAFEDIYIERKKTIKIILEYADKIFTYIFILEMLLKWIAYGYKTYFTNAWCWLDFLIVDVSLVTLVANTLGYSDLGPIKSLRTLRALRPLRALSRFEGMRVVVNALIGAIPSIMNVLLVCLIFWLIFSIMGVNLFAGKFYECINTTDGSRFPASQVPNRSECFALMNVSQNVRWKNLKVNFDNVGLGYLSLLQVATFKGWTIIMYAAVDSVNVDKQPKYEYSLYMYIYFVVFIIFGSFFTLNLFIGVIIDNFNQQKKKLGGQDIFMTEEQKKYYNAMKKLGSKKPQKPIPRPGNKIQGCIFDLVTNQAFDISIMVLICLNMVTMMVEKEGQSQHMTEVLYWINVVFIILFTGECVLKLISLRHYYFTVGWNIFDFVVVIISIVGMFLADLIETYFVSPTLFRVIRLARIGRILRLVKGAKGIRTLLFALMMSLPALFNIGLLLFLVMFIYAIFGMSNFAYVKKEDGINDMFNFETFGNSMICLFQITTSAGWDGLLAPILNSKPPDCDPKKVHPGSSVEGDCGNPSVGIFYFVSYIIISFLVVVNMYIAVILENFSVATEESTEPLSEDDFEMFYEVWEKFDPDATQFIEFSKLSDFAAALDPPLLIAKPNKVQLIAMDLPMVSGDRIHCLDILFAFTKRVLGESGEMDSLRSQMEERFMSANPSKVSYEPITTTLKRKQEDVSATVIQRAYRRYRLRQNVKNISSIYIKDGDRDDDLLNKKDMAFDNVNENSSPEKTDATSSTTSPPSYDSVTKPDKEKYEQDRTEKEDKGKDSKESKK

SMILES | IC50 [nM]
Cc1cc(Nc2ccc(S(=O)(=O)Nc3nccs3)cc2)n(Cc2ccncc2)n1 [Compound 131, 4-(3-methyl-1-(pyridin-4-ylmethyl)-1H-pyrazol-5-ylamino)-N-(thiazol-2-yl)benzenesulfonamide] | > 1000
Cc1cc(Nc2ccc(S(=O)(=O)Nc3nccs3)cc2)n(CC2CCCCC2)n1 [Compound 132, 4-(1-(cyclohexylmethyl)-3-methyl-1H-pyrazol-5-ylamino)-N-(thiazol-2-yl)benzenesulfonamide] | > 1000
O=C1CC(c2ccccc2)Cc2nc(Nc3ccc(S(=O)(=O)Nc4nccs4)cc3)sc21 (stereo not shown) [Compound 135, 4-(7-oxo-5-phenyl-4,5,6,7-tetrahydrobenzo[d]thiazol-2-ylamino)-N-(thiazol-2-yl)benzenesulfonamide] | > 1000
CC1(C)CC(=O)c2sc(Nc3ccc(S(=O)(=O)Nc4nccs4)cc3)nc2C1 [Compound 136, 4-(5,5-dimethyl-7-oxo-4,5,6,7-tetrahydrobenzo[d]thiazol-2-ylamino)-N-(thiazol-2-yl)benzenesulfonamide] | > 1000
Cc1cc(Nc2ccc(S(=O)(=O)Nc3nccs3)cc2)n(-c2ccc(Cl)cc2)n1 [Compound 137, 4-(1-(4-chlorophenyl)-3-methyl-1H-pyrazol-5-ylamino)-N-(thiazol-2-yl)benzenesulfonamide] | 2000 to 10000
Cn1nc(Cc2ccc(C(F)(F)F)cc2)cc1Nc1ccc(S(=O)(=O)Nc2nccs2)cc1 [Compound 138, 4-(1-methyl-3-(4-(trifluoromethyl)benzyl)-1H-pyrazol-5-ylamino)-N-(thiazol-2-yl)benzenesulfonamide] | < 2000
Cn1nc(Cc2ccc(F)cc2F)cc1Nc1ccc(S(=O)(=O)Nc2nccs2)cc1 [Compound 139, 4-(3-(2,4-difluorobenzyl)-1-methyl-1H-pyrazol-5-ylamino)-N-(thiazol-2-yl)benzenesulfonamide] | < 2000
Cc1cc(Nc2ccc(S(=O)(=O)Nc3nccs3)c(F)c2)n(-c2ccc(Cl)cc2)n1 [Compound 140, 4-(1-(4-chlorophenyl)-3-methyl-1H-pyrazol-5-ylamino)-2-fluoro-N-(thiazol-2-yl)benzenesulfonamide] | < 2000
Cn1nc(Cc2ccc(Cl)cc2)cc1Nc1ccc(S(=O)(=O)Nc2nccs2)c(F)c1 [Compound 141, 4-(3-(4-chlorobenzyl)-1-methyl-1H-pyrazol-5-ylamino)-2-fluoro-N-(thiazol-2-yl)benzenesulfonamide] | < 2000
Cn1nc(C2(c3ccc(Cl)cc3)CC2)cc1Nc1ccc(S(=O)(=O)Nc2nccs2)cc1F [Compound 142, 4-(3-(1-(4-chlorophenyl)cyclopropyl)-1-methyl-1H-pyrazol-5-ylamino)-3-fluoro-N-(thiazol-2-yl)benzenesulfonamide] | < 2000
Cn1nc(Cc2ccc(Cl)cc2)cc1Nc1ccc(S(=O)(=O)Nc2nccs2)cc1F [Compound 143, 4-(3-(4-chlorobenzyl)-1-methyl-1H-pyrazol-5-ylamino)-3-fluoro-N-(thiazol-2-yl)benzenesulfonamide] | < 2000
O=S(=O)(Nc1nccs1)c1ccc(Nc2cc(C3CC3)nn2-c2ccccc2)cc1 [Compound 144, 4-(3-cyclopropyl-1-phenyl-1H-pyrazol-5-ylamino)-N-(thiazol-2-yl)benzenesulfonamide] | < 2000

Now from value to compound:

IC50 [nM] | SMILES
2000 to 10000 | Cn1ncc(-c2ccccc2)c1Nc1ccc(S(=O)(=O)Nc2nccs2)c(F)c1 [Compound 148, 2-fluoro-4-(1-methyl-4-phenyl-1H-pyrazol-5-ylamino)-N-(thiazol-2-yl)benzenesulfonamide]
< 2000 | Cc1ccc(Cc2cc(Nc3ccc(S(=O)(=O)Nc4nccs4)c(F)c3)n(C(C)(C)C)n2)cc1 [Compound 157, 4-(1-tert-butyl-3-(4-methylbenzyl)-1H-pyrazol-5-ylamino)-2-fluoro-N-(thiazol-2-yl)benzenesulfonamide]
< 2000 | Cc1ccc(Cc2cc(Nc3ccc(S(=O)(=O)Nc4nccs4)cc3F)n(C(C)(C)C)n2)cc1 [Compound 158, 4-(1-tert-butyl-3-(4-methylbenzyl)-1H-pyrazol-5-ylamino)-3-fluoro-N-(thiazol-2-yl)benzenesulfonamide]
< 2000 | Cc1ccc(Cc2cc(Nc3ccc(S(=O)(=O)Nc4nccs4)c(F)c3)n(C)n2)cc1 [Compound 159, 2-fluoro-4-(1-methyl-3-(4-methylbenzyl)-1H-pyrazol-5-ylamino)-N-(thiazol-2-yl)benzenesulfonamide]
< 2000 | Cc1ccc(Cc2cc(Nc3ccc(S(=O)(=O)Nc4nccs4)cc3F)n(C)n2)cc1 [Compound 160, 3-fluoro-4-(1-methyl-3-(4-methylbenzyl)-1H-pyrazol-5-ylamino)-N-(thiazol-2-yl)benzenesulfonamide]
2000 to 10000 | Cc1cc(Nc2ccc(S(=O)(=O)Nc3ncc(Cl)s3)cc2)n(-c2ccccc2)n1 [Compound 163, N-(5-chlorothiazol-2-yl)-4-(3-methyl-1-phenyl-1H-pyrazol-5-ylamino)benzenesulfonamide]
< 2000 | CC(C)(C)n1nc(Cc2cccc(Cl)c2)cc1Nc1ccc(S(=O)(=O)Nc2nccs2)c(F)c1 [Compound 164, 4-(1-tert-butyl-3-(3-chlorobenzyl)-1H-pyrazol-5-ylamino)-2-fluoro-N-(thiazol-2-yl)benzenesulfonamide]
< 2000 | Cc1ccc(Cc2cc(Nc3ccc(S(=O)(=O)Nc4nccs4)c(F)c3)[nH]n2)cc1 [Compound 165, 2-fluoro-4-(3-(4-methylbenzyl)-1H-pyrazol-5-ylamino)-N-(thiazol-2-yl)benzenesulfonamide]
< 2000 | CC(C)(C)n1nc(Cc2ccc(Cl)c(F)c2)cc1Nc1ccc(S(=O)(=O)Nc2nccs2)c(F)c1 [Compound 166, 4-(1-tert-butyl-3-(4-chloro-3-fluorobenzyl)-1H-pyrazol-5-ylamino)-2-fluoro-N-(thiazol-2-yl)benzenesulfonamide]
< 2000 | Cc1ccc(Cc2cc(Nc3ccc(S(=O)(=O)Nc4nccs4)cc3F)[nH]n2)cc1 [Compound 167, 3-fluoro-4-(3-(4-methylbenzyl)-1H-pyrazol-5-ylamino)-N-(thiazol-2-yl)benzenesulfonamide]
< 2000 | O=S(=O)(Nc1nccs1)c1ccc(Nc2ccnn2-c2ccccc2)cc1F [Compound 168, 2-fluoro-4-(1-phenyl-1H-pyrazol-5-ylamino)-N-(thiazol-2-yl)benzenesulfonamide]
< 2000 | Cc1cc(Nc2ccc(S(=O)(=O)Nc3nccs3)c(F)c2)n(C2CCCC2)n1 [Compound 169, 4-(1-cyclopentyl-3-methyl-1H-pyrazol-5-ylamino)-2-fluoro-N-(thiazol-2-yl)benzenesulfonamide]
< 2000 | Cc1cc(Nc2ccc(S(=O)(=O)Nc3nccs3)c(F)c2)n(-c2ccc(C(F)(F)F)cc2)n1 [Compound 170, 2-fluoro-4-(3-methyl-1-(4-(trifluoromethyl)phenyl)-1H-pyrazol-5-ylamino)-N-(thiazol-2-yl)benzenesulfonamide]
< 2000 | O=S(=O)(Nc1nccs1)c1ccc(Nc2cnn(C(c3ccccc3)c3ccccc3)c2)cc1F [Compound 171, 4-(1-benzhydryl-1H-pyrazol-4-ylamino)-2-fluoro-N-(thiazol-2-yl)benzenesulfonamide]
< 2000 | O=S(=O)(Nc1nccs1)c1ccc(Nc2c3c(nn2-c2ccccc2)CCC3)cc1F [Compound 174, 2-fluoro-4-(2-phenyl-2,4,5,6-tetrahydrocyclopenta[c]pyrazol-3-ylamino)-N-(thiazol-2-yl)benzenesulfonamide]
< 2000 | Cc1cc(Nc2ccc(S(=O)(=O)Nc3nccs3)c(F)c2)n(C(C)C2CC2)n1 (stereo not shown) [Compound 175, 4-(1-(1-cyclopropylethyl)-3-methyl-1H-pyrazol-5-ylamino)-2-fluoro-N-(thiazol-2-yl)benzenesulfonamide]

Source: patent publication US8124610B2, “Sodium channel inhibitors” (Icagen Inc., priority 2007, dated 2012)
